# According to paper PMC12638251, “Uridine-sensitized screening identifies demethoxy-coenzyme Q and NUDT5 as regulators of nucleotide synthesis” (Nature Metabolism, 2025):
# Target: T1, PPAT (amidophosphoribosyltransferase) (Homo sapiens, UniProt Q06203)
# T1 construct: with NUDT5
# Test: native PAGE of K562 lysate with PRPP dose curve (loss of NUDT5-PPAT oligomer); co-immunoprecipitation with […] PRPP
# Assay type: biochemical
# T1 sequence (Q06203 12-517): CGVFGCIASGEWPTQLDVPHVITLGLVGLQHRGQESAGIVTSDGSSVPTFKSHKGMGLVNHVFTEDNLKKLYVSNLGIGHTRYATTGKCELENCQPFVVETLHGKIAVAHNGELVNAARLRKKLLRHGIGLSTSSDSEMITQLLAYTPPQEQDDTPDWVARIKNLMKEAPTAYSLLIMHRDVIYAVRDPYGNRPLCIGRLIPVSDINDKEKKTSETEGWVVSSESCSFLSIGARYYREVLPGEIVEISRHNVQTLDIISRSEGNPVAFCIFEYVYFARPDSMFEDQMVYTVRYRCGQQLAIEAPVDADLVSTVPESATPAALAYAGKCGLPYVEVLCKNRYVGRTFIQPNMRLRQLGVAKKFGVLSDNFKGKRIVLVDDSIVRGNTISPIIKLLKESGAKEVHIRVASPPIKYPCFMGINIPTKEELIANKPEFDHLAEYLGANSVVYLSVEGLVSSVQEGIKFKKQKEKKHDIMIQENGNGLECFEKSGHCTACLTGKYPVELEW
# T1 sequence (O95848 whole entry partner): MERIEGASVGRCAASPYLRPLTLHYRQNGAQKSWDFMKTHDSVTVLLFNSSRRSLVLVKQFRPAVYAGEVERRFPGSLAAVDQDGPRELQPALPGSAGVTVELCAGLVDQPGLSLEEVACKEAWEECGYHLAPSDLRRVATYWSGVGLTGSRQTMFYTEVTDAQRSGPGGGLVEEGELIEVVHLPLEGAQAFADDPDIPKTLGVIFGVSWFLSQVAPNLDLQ
structure (smiles),measurement,value
"O=P(O)(O)OC[C@H]1OC(OP(=O)(O)OP(=O)(O)O)[C@H](O)[C@@H]1O (stereo partly shown) [PRPP, phosphoribosyl pyrophosphate]",IC50,100 µM
